# Counter-ions that a name gives are not always drawn. Like-named read-outs stand apart in the source and are kept apart here.
# What was measured:
# human β3 = biological target: T1, human β3 (Homo sapiens, UniProt P13945); experiment: Human β3-agonist activity (cAMP accumulation in CHO cells transfected with human β3 gene); format: cell-based
# T1 construct: inserted the 1st exon of human β3 gene was transfected; expressed in transfected cells; host or cells: CHO cells (Chinese hamster ovary), pcDNA3 vector
# T1 sequence (P13945 1-402 limits assumed): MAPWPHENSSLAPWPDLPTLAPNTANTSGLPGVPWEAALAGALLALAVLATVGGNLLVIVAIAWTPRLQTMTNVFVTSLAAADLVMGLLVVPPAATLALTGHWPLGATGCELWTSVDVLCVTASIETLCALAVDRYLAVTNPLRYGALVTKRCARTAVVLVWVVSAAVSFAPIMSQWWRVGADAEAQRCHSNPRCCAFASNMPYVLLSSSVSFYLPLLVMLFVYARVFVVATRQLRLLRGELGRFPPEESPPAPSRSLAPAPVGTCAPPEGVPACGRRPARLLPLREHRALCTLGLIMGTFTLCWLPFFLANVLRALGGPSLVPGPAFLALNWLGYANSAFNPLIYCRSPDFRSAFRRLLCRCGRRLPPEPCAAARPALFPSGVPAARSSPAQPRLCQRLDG
# Protocol: Human β3-agonist Activity Human β3-agonist activity was examined using CHO cells (chinese hamster ovarian cells) to which pcDNA3 (in vitrogen) inserted the 1st exon of human β3 gene was transfected. Human β3 fragment was obtained by PCR using human fat tissue cDNA (supplied from Clontech) with a […] [Krief et al, J. Clin. Invest., Vol. 91, p344-349 (1993)]. And then full length of human […] was cloned using this fragment as a probe.
# The cells were cultured in a HAM F-12 medium containing 10% of fetal bovine serum, 400 μg/ml of Geneticin (Gibco BRL), 100 U/ml penicillin and 100 μg/ml streptomycin. 5×10^5 cells were placed on a 6-well plate and cultured for 24 hours, after which the medium was changed to a HAM F-12 medium without serum and was kept for 2 hours. Each test compound was first dissolved in DMSO, and then diluted with a HAM F-12 medium containing 1 mM isobutylmethyl xanthine and 1 mM ascorbic acid. A 10-fold dilution in the range of 10^-5 to 10^-12 M was added into the cells.
# After culturing for 30 minutes, culture medium was withdrawn, 0.5 ml of 1 N NaOH was added and was kept for 20 minutes. Ater then 0.5 ml of 1 N acetic acid was added with subsequent agitation and centrifugation. Finally, concentration of cAMP were analyzed using cAMP EIA KIT (Cayman). […] CL316,243 was synthesized by the method given in J. Med. Chem., Vol. 35, p3081-3084 (1992).
# [1] = parameters: species or system male ddy mice; settings: mouse, in vivo, po, 100 mg/kg
# Protocol: The compounds of Example 2 was orally administered to 6 weeks age male ddy mice (supplied from the firm Nippon Chrles Liver) at a dose of 100 mg/kg.
# [2] = Blood glucose lowering effect in glucose-loaded mice; format: in vivo, male ddy mice; settings: intraperitoneal, 10 mg/kg; 1 hour; glucose load 2 g/kg s.c.
# Protocol: Blood Glucose Lowering Effect and Lipolytic Effect
# Glucose was subcutaneously administered to male ddy mice (supplied from the dirm Nippon Charles Liver) of 6 weeks age at a dose of 2 g/kg. The animals were also treated with either one of test compounds via oral or intraperitoneal administration at a dose of 0.1 ml per 10 g of body weight. After one hour, blood sample was taken from abdominal aorta, serum was separated and served as the sample.
# Blood Glucose Lowering Effect:
# The samples prepared as above were analyzed for the serum glucose concentration by Auto analyzer (SUPER Z of the firm M. C. Medical). For the analyzer kit, Glucose 11 HA TEST WAKO (of the firm Wako Pure Chemical) was used.
# % decrease in blood glucose=[(A-B)/(A-C)]×100
# in whcih A represents the glucose concentration after loading glucose, B represents the glucose concentration after administration of the compound and C is the usual level of the glucose concentration.
# rat adipocytes = experiment: Lipolytic activity in rat adipocytes (glycerol concentration); format: cell-based; settings: Adipocyte; for EC50: rat adipocytes, glycerol release, 37° C., 1 hour, read-out: ED50 (the source's name); for Emax: Rattus norvegicus, 1 h, read-out: Intrinsic activity(%)
# Protocol: Lipolytic Activity in Rat Adipocytes Adipose tissues were collected from epididymis and minced. Krebs-Ringer buffer solution containing 1 mg/ml Collagenase (Sigma) and 1% of bovine serum albumin was added in an amount of 3 ml per one gram of the tissue. These cells were then incubated at 37° C. for 30 minutes with shaking and then undigested tissues were removed with a nylon filter. The resulting adipocytes were washed four times with Krebs-Ringer buffer, and then cells was diluted to 2×10^5 cells/ml with Krebs-Ringer buffer solution containing 4% of bovine serum albumin. These cells were transferred to Eppendorf tubes each in an amount of 300 μl. Each 300 μl of a culture medium containing the test compounds was added to these tubes and was held at 37° C. for 1 hour with shaking. Stimulation was stopped by cooling with ice. After centrifugation, the adipocytes were taken off with an aspirator, and then the concentration of glycerol was determined using F-KIT GLYCEROL (Behringer-Manheim).
# [3] = Lipolytic effect in mice (serum free fatty acid); format: in vivo, male ddy mice; settings: intraperitoneal, 10 mg/kg; 1 hour
# Protocol: Blood Glucose Lowering Effect and Lipolytic Effect Glucose was subcutaneously administered to male ddy mice (supplied from the dirm Nippon Charles Liver) of 6 weeks age at a dose of 2 g/kg. […] After one hour, blood sample was taken from abdominal aorta, serum was separated and served as the sample. Lipolytic Effect: Amount of free fatty acid in the samples was determined using NEFA HA TEST WAKO (of the firm Wako Pure Chemical). […] Therefore, it was shown that they are useful for preventive and therapeutic treatment of hyperlipemia and obesity.
# [4] = CHO cells expressing human β3, cAMP, 30 minutes; read-out: ED50 (the source's name)
# [5] = CHO, read-out: Intrinsic activity(%)
SMILES,EC50 (human β3; [4]) [nM],Emax (human β3; [5]) [%],fatal cases [1],reduction of blood glucose [2],EC50 (rat adipocytes) [nM],Emax (rat adipocytes) [%],increase of free fatty acid concentration [3],Emax (human β3; CHO; read-out: Intrinsic activity(%)) [%]
"CS(=O)(=O)Nc1cc([C@@H](O)CNCCOc2ccc3c4c([nH]c3c2)CCCC4)ccc1Br [Example 15, (R)-N-[5-[2-[2-(5,6,7,8-tetrahydro-9H-carbazol-2-yloxy)ethylamino]-1-hydroxyethyl]-2-bromophenyl]methanesulfonamide hydrochloride]",40,72,–,–,–,–,–,–
"CN(C)S(=O)(=O)Nc1cc([C@@H](O)CNCCOc2ccc3c4c([nH]c3c2)CCCC4)ccc1O.Cl [Example 2, (R)-N'-[5-[2-[2-(5,6,7,8-tetrahydro-9H-carbazol-2-yloxy)ethylamino]-1-hydroxyethyl]-2-hydroxyphenyl]-N,N-dimethylsulfamide hydrochloride]",0.26,63,no fatal case was found,showed a reduction of blood glucose,2000,127,showed an increase of free fatty acid concentration,–
"CS(=O)(=O)Nc1cc(C(O)CNCCOc2ccc3c4c([nH]c3c2)CCCC4)ccc1Cl (racemic) [Example 14, (±)-N-[5-[2-[2-(5,6,7,8-tetrahydro-9H-carbazol-2-yloxy)ethylamino]-1-hydroxyethyl]-2-chlorophenyl]methanesulfonamide hydrochloride]",25,62,–,–,–,–,–,–
"CS(=O)(=O)Nc1cc([C@@H](O)CNCCOc2ccc3c4c(oc3c2)CCCC4)ccc1O [Example 26, (R)-N-[5-[2-[2-(6,7,8,9-tetrahydrodibenzofuran-3-yloxy)ethylamino]-1-hydroxyethyl]-2-hydroxyphenyl]methanesulfonamide hydrochloride]",31,111,–,–,39,118,–,–
"C[C@H](Cc1ccc(OCC(=O)O)cc1)NC[C@H](O)c1cccc(Cl)c1 [BRL37344, reference compound]",–,–,–,–,–,–,–,29
"CS(=O)(=O)Nc1cc([C@@H](O)CNCCOc2ccc3c4c(sc3c2)CCCC4)ccc1O [Example 28, (R)-N-[5-[2-[2-(6,7,8,9-tetrahydrodibenzothiophen-3-yloxy)ethylamino]-1-hydroxyethyl]-2-hydroxyphenyl]methanesulfonamide hydrochloride]",0.11,96,–,–,400,140,–,–
"CS(=O)(=O)Nc1cccc(C(O)CNCCOc2ccc3c4c([nH]c3c2)CCCC4)c1 (racemic) [Example 17, (±)-N-[3-[2-[2-(5,6,7,8-tetrahydro-9H-carbazol-2-yloxy)ethylamino]-1-hydroxyethyl]phenyl]methanesulfonamide hydrochloride]",92,78,–,–,–,–,–,–
"CN(C)S(=O)(=O)Nc1cc([C@@H](O)CNCCOc2ccc3c4c(oc3c2)CCCC4)ccc1O [Example 22, (R)-N'-[5-[2-[2-(6,7,8,9-tetrahydrodibenzofuran-3-yloxy)ethylamino]-1-hydroxyethyl]-2-hydroxyphenyl]-N,N-dimethylsulfamide hydrochloride]",27,84,–,–,–,–,–,–
"CS(=O)(=O)Nc1cc([C@@H](O)CNCCOc2ccc3c4c([nH]c3c2)CCCC4)ccc1OCc1ccccc1 [Example 5, (R)-N-[5-[2-[2-(5,6,7,8-tetrahydro-9H-carbazol-2-yloxy)ethylamino]-1-hydroxyethyl]-2-benzyloxyphenyl]methanesulfonamide hydrochloride]",570,101,–,–,–,–,–,–
"CS(=O)(=O)Nc1cc([C@@H](O)CNCCOc2ccc3c4c([nH]c3c2)CCCC4)ccc1F [Example 9, (R)-N-[5-[2-[2-(5,6,7,8-tetrahydro-9H-carbazol-2-yloxy)ethylamino]-1-hydroxyethyl]-2-fluorophenyl]methanesulfonamide hydrochloride]",29,47,–,–,–,–,–,–
"CS(=O)(=O)Nc1cc([C@@H](O)CNCCOc2ccc3c4c([nH]c3c2)CCCC4)ccc1O [Example 6, (R)-N-[5-[2-[2-(5,6,7,8-tetrahydro-9H-carbazol-2-yloxy)ethylamino]-1-hydroxyethyl]-2-hydroxyphenyl]methanesulfonamide hydrochloride]",0.021,84,–,–,200,132,–,–
"CC(C)NCC(O)c1ccc(O)c(O)c1 (stereo not shown) [isoproterenol, reference compound]",–,–,–,–,92,100,–,–
